Measurements: ChEMBL document CHEMBL4823254, “Tetrahydroquinoline-Capped Histone Deacetylase 6 Inhibitor SW-101 Ameliorates Pathological Phenotypes in a Charcot-Marie-Tooth Type 2A Mouse Model” (J Med Chem, 2021)
pIC50: −log10 of the molar value.

What was measured:
Histone deacetylase 1 [1] = target: T1, Histone deacetylase 1 (Homo sapiens, UniProt Q13547); experiment: biochemical
Target sequence in this assay (Q13547 whole entry, looked up): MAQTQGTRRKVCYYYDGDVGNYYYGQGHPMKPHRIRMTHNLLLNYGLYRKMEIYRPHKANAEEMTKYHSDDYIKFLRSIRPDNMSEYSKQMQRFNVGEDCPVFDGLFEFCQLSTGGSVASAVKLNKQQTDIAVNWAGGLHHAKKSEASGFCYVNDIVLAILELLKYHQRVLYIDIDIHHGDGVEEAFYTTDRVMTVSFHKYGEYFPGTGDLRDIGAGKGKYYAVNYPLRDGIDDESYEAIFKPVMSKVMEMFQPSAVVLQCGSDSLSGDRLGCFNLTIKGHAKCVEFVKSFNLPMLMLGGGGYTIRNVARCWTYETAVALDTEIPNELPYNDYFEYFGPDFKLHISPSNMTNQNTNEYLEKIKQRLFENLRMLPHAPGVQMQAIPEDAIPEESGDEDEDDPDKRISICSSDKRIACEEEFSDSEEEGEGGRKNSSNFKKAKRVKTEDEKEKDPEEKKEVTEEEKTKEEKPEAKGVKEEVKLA

[2] = target: Protein deacetylase HDAC6, Homo sapiens (UniProt Q9UBN7); experiment: biochemical
[3] = target: T2, Protein deacetylase HDAC6 (Mus musculus) (UniProt Q9Z2V5); experiment: Inhibition of HDAC6 in mouse Neuro2a cells assessed as fold increase in ratio of acetylated alpha-tubulin to alpha tubulin at 0.01 uM incubated for overnight by Western blot analysis; format: cell-based; settings: time 12.0 hrs
T2 sequence (whole entry): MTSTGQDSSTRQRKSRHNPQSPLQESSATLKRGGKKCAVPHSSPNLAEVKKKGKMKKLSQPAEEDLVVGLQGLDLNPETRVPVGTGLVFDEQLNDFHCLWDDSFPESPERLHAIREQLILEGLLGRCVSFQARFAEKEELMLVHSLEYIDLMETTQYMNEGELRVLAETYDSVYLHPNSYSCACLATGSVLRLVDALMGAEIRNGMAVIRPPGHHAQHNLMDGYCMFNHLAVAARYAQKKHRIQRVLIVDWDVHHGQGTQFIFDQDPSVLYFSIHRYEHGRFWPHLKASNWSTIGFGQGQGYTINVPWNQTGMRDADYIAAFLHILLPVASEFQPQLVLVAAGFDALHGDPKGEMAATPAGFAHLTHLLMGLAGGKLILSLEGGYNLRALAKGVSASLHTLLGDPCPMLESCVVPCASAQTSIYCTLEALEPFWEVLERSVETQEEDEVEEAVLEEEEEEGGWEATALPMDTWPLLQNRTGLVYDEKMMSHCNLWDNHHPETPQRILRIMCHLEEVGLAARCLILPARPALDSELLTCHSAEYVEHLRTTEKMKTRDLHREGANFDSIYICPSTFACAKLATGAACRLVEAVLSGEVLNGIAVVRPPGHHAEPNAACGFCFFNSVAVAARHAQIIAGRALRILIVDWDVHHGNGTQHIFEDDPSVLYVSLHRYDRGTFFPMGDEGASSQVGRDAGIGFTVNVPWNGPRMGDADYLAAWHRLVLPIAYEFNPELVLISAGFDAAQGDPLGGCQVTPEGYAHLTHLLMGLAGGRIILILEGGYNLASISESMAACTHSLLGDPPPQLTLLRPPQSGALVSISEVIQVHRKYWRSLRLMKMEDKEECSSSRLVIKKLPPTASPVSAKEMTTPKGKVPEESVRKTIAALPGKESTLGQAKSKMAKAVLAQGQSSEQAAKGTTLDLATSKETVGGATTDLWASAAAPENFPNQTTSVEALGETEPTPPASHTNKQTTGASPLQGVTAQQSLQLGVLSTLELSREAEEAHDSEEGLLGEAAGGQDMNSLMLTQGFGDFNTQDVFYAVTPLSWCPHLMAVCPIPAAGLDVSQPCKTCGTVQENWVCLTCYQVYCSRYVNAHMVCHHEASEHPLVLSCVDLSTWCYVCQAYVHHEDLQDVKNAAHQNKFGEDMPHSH

[4] = target: T2, Protein deacetylase HDAC6 (Mus musculus); experiment: Inhibition of HDAC6 in mouse Neuro2a cells assessed as fold increase in ratio of acetylated alpha-tubulin to alpha tubulin at 1 uM incubated for overnight by Western blot analysis; format: cell-based; settings: time 12.0 hrs
Histone deacetylase 1 [5] = target: T1, Histone deacetylase 1
Target sequence in this assay (Q13547 whole entry): as the sequence (Q13547 whole entry, looked up) above
Description: Inhibition of recombinant human HDAC1 using Ac-GAK(Ac)-AMC as substrate preincubated for 10 mins followed by substrate addition and measured after 30 mins by fluorescence-based assay

[6] = target: T3, Protein deacetylase HDAC6 (Homo sapiens, UniProt Q9UBN7)
T3 sequence (Q9UBN7 whole entry): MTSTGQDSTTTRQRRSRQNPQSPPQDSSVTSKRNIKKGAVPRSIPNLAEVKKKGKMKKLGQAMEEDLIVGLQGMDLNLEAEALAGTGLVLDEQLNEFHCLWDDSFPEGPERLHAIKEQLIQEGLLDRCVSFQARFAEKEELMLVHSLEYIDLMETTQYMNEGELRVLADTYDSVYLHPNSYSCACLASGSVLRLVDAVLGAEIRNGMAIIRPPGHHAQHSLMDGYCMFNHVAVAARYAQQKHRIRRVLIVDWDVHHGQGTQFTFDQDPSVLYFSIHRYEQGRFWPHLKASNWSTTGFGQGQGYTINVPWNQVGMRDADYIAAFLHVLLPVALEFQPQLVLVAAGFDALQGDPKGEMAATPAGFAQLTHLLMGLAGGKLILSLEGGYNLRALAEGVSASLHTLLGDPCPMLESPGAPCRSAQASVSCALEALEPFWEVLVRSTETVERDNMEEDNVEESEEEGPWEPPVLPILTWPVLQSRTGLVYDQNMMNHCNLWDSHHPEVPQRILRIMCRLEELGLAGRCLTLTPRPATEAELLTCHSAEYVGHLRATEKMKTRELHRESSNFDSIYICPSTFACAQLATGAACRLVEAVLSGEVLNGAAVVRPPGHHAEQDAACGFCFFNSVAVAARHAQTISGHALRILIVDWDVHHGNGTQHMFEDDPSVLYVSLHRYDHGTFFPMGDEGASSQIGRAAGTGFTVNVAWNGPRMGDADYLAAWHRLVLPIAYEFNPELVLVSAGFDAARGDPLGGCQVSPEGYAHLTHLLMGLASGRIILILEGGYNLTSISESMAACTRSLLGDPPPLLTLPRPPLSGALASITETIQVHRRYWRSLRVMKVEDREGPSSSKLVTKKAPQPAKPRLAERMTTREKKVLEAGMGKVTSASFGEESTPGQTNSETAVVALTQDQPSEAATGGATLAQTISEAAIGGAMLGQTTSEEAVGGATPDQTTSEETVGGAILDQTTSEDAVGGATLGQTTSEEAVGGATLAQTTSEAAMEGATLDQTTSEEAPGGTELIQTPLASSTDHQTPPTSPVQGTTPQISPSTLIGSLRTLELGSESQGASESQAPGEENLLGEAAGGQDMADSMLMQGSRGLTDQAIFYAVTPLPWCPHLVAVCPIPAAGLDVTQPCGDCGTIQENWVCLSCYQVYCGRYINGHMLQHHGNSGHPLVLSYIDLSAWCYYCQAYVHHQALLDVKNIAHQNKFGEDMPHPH
Description: Inhibition of recombinant human HDAC6 using Ac-GAK(Ac)-AMC as substrate preincubated for 10 mins followed by substrate addition and measured after 30 mins by fluorescence-based assay

Histone deacetylase 8 = target: T4, Histone deacetylase 8 (Homo sapiens, UniProt Q9BY41)
T4 sequence (Q9BY41 whole entry): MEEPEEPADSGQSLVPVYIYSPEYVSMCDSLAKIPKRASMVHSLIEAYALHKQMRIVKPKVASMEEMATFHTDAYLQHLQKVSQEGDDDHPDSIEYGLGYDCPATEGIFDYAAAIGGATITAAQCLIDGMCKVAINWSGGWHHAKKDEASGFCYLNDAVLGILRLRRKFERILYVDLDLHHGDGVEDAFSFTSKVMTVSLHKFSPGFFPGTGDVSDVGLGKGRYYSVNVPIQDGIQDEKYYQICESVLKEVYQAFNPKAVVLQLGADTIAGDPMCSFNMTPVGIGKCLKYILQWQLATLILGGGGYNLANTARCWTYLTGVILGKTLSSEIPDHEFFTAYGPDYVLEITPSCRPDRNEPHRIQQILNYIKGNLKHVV
Description: Inhibition of recombinant human HDAC8 using Boc-Lys(TFA)-AMC as substrate preincubated for 10 mins followed by substrate addition and measured after 30 mins by fluorescence-based assay

[7] = Stability in human pooled liver microsomes assessed as parent compound remaining measured at 60 mins in presence of NADPH by LC-MS/MS analysis; format: ADME, Microsome; settings: pooled liver microsomes, read-out: Stabilty
[8] = Half life in human pooled liver microsomes assessed as parent compound remaining measured up to 60 mins in presence of NADPH by LC-MS/MS analysis; format: ADME, Microsome; settings: pooled liver microsomes
[9] = Half life in CD1 mouse pooled liver microsomes assessed as parent compound remaining measured up to 60 mins in presence of NADPH by LC-MS/MS analysis; format: ADME, Microsome; settings: for half-life: CD1, mouse, pooled liver microsomes
[10] = Stability in CD1 mouse pooled liver microsomes assessed as parent compound remaining measured at 60 mins in presence of NADPH by LC-MS/MS analysis; format: ADME, Microsome; settings: for remaining at 1 h: CD1, mouse, pooled liver microsomes, read-out: Stabilty

| Compound | pIC50 (Histone deacetylase 1 [1]) | Ratio IC50 (Homo sapiens) | pIC50 [2] | fold change (FC) [3] | fold change (FC) [4] | pIC50 (Histone deacetylase 1 [5]) | pIC50 [6] | pIC50 (Histone deacetylase 8) | remaining at 1 h [7] [%] | half-life [8] [min] | half-life [9] [min] | remaining at 1 h [10] [%] | t1/2 ([9]; mouse, microsomes, 1 h) [min] | Stabilty ([10]; mouse, microsomes, 1 h) [%] |
| --- | --- | --- | --- | --- | --- | --- | --- | --- | --- | --- | --- | --- | --- | --- |
| CC1(C)CCN(Cc2ccc(C(=O)NO)cc2)c2ccc(F)cc21 | 4.68 | 468 | 7.35 |  |  |  |  |  |  |  |  |  |  |  |
| O=C(NO)c1ccc(CN2CCCc3cc(F)c(Cl)cc32)cc1 | 5.73 | 550 | 8.47 | 1.14 | 1.53 |  |  |  |  |  |  |  |  |  |
| O=C(NO)c1ccc(CN2C(=O)CCc3cc(C4CC4)ccc32)cc1 |  |  |  |  |  | 6.93 | 8.57 | 5.82 |  |  |  |  |  |  |
| O=C(NO)c1ccc(CN2C(=O)CCc3cc(Br)ccc32)cc1 |  |  |  |  |  | 6.97 | 9.05 | 6.13 |  |  |  |  |  |  |
| O=C(NO)c1ccc(CN2CCCCc3cc(-c4cc[nH]n4)ccc32)cc1 |  |  |  | 0.95 | 1.78 | 5.97 | 7.77 | 5.55 | 15 | 22.2 | 18.3 | 10.1 |  |  |
| O=C(NO)c1ccc(CN2CCCc3cc(Cl)ccc32)c(F)c1 | 4.67 | 1710 | 7.91 | 1.21 | 1.38 |  |  |  |  |  | 24.8 | 17.2 |  |  |
| O=C(NO)c1ccc(C(=O)N2CCCc3cc(Cl)ccc32)cc1 | 4.98 | 11 | 6.02 |  |  |  |  |  |  |  |  |  |  |  |
| O=C(NO)c1ccc(CN2C(=O)CCCc3cc(Cl)ccc32)cc1 |  |  |  | 2.81 | 1.73 | 6.90 | 9.10 | 5.93 | 95.3 | 722 | 110 | 68.1 |  |  |
| CC1(C)CCc2cc(Cl)ccc2N1Cc1ccc(C(=O)NO)cc1 | 4.71 | 60 | 6.48 |  |  |  |  |  |  |  | 25.4 | 20.3 |  |  |
| CC(c1ccc(C(=O)NO)cc1)N1CCCc2cc(Cl)ccc21 (stereo unspecified) | 5.07 | 22 | 6.42 |  |  |  |  |  |  |  |  |  |  |  |
| O=C(NO)c1ccc(CN2CCCCc3ccccc32)cc1 |  |  |  | 0.98 | 0.78 | 5.88 | 8.30 | 5.25 | 83.9 | 242 | 39.6 | 34.7 |  |  |
| O=C(NO)c1ccc(CN2C(=O)CCc3cc(Cl)ccc32)cc1 |  |  |  | 0.93 | 1.51 | 6.56 | 8.54 | 5.68 | 92.6 | 577 |  |  | 1743 | 77.7 |
| O=C(NO)c1ccc(CN2CCCc3cc(Cl)c(F)cc32)cc1 | 5.49 | 670 | 8.32 | 1.16 | 1.5 |  |  |  |  |  | 25.7 | 19.1 |  |  |
| NC(=O)c1ccc2c(c1)CCCCN2Cc1ccc(C(=O)NO)cc1 |  |  |  | 2.4 | 1.19 | 6.82 | 8.62 | 5.97 |  |  |  |  |  |  |
| CN1CCc2c(c3ccccc3n2Cc2ccc(C(=O)NO)cc2)C1 |  |  |  | 0.91 | 1.11 |  |  |  |  |  |  |  |  |  |
| CC1(C)CCc2cc(F)ccc2N1Cc1ccc(C(=O)NO)cc1 | 4.85 | 88 | 6.79 |  |  |  |  |  |  |  |  |  |  |  |
| O=C(NO)c1ccc(CN2CCCCc3cc(Cl)ccc32)cc1 |  |  |  | 0.89 | 0.55 | 5.72 | 9.00 | 5.06 | 83.9 | 2130 | 60.6 | 34.7 |  |  |
| O=C(NO)c1ccc(CN2CCCCc3cc(Br)ccc32)cc1 |  |  |  |  |  | 5.80 | 8.05 | 5.36 |  |  |  |  |  |  |
| O=C(NO)c1ccc(CN2CCCc3cc(Cl)c(Cl)cc32)cc1 | 5.58 | 728 | 8.44 | 1.38 | 1.54 |  |  |  |  |  |  |  |  |  |
| CC1(C)CCN(Cc2ccc(C(=O)NO)cc2)c2ccc(Cl)cc21 | 4.71 | 519 | 7.42 |  |  |  |  |  |  |  | 15.9 | 6.8 |  |  |
| CCCc1ccc2c(c1)CCC(=O)N2Cc1ccc(C(=O)NO)cc1 |  |  |  |  |  | 6.51 | 7.92 | 5.57 |  |  |  |  |  |  |
| N#Cc1ccc2c(c1)CCCCN2Cc1ccc(C(=O)NO)cc1 |  |  |  |  | 0.98 | 6.61 | 8.34 | 5.65 | 84.9 | 253 | 196 | 80.8 |  |  |
| N#Cc1ccc2c(c1)CCCN2Cc1ccc(C(=O)NO)cc1 |  |  |  |  |  | 6.85 | 8.89 | 5.83 |  |  |  |  |  |  |
| O=C(NO)c1ccc(CN2CCCc3cc(-c4cc[nH]n4)ccc32)cc1 |  |  |  | 2.65 | 2.14 | 6.74 | 9.52 | 6.10 |  |  |  |  |  |  |
